The values that follow come from article PMC6658998, “Pharmacological characterization of the seven human NOX isoforms and their inhibitors” (Redox Biology, 2019).

A value given as a limit tells only on which side of the number the result lay.

One series has as its target T1, NOX5 (Homo sapiens, UniProt Q96PH1).
T1 construct: expressed in transfected cells
T1 sequence (Q96PH1 19-737 isoform Q96PH1-3 limits assumed): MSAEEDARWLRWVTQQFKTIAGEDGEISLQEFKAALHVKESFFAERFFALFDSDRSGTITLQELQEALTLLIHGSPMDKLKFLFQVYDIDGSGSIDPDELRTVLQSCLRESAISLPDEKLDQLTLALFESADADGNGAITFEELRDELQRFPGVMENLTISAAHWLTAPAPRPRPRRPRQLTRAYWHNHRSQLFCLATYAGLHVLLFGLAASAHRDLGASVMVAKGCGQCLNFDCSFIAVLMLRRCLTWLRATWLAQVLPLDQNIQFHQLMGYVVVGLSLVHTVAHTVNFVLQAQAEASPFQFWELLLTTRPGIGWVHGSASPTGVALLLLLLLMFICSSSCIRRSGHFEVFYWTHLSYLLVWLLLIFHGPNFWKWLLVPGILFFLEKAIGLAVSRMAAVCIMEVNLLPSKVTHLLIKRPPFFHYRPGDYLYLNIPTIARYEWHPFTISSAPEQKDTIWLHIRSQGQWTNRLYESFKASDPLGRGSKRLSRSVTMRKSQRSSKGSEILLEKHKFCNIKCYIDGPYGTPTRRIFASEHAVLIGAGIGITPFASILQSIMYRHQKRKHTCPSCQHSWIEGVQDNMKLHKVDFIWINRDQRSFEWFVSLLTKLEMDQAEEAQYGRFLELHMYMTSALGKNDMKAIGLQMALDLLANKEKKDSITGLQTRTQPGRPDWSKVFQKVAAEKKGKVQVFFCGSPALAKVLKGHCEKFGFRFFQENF
The series can be described thus: Amplex Red/HRP H2O2 detection in NOX5-expressing HEK293 cells. The series is classed as cell-based. The conditions noted are these: PMA 0.1 μM and ionomycin 1 μM, read-out: IC50 NOX5 (HEK) AR.

Another series concerns the target T2, human NOX1 (Homo sapiens, UniProt Q9Y5S8).
T2 construct: expressed in transfected cells; host or cells: CHO
T2 sequence (Q9Y5S8 1-564): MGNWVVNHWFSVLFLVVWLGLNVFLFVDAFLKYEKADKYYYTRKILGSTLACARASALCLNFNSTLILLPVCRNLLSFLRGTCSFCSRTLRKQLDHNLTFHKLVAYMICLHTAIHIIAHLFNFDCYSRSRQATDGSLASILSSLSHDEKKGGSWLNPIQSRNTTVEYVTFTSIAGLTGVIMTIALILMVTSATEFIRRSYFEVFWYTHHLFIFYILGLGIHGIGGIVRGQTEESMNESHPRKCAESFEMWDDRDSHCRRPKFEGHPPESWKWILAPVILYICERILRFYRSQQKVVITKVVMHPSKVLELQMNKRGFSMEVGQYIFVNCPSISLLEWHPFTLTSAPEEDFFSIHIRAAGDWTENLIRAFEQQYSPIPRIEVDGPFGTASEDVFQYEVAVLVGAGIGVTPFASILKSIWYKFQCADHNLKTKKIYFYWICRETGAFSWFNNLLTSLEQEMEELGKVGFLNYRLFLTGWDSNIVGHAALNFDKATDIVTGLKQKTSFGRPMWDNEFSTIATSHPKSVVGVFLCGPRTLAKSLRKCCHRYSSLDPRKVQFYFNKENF
T2 sequence (P13498 1-195 partner): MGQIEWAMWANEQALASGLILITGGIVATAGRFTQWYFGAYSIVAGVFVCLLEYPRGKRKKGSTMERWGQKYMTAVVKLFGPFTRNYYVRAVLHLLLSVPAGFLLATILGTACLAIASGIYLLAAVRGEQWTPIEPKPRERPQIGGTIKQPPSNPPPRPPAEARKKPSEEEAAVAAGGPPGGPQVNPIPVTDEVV
The series can be described thus: WST-1 O2•- detection in NOX1-expressing CHO cells. The series is classed as cell-based. The conditions noted are these: WST-1, PMA 0.1 μM. In general terms: Formazan colour is commonly taken as a measure of viable cells.

The nature of series [1]: Cell-free Amplex Red/HRP assay with 10 μM H2O2 (H2O2 scavenging / HRP inhibition). The conditions noted are these: 10 μM H2O2, Amplex Red/HRP, read-out: Scavenging effect IC50 AR H2O2.
Procedure: (§1) This assay allows to detect H2O2 scavengers as well as HRP inhibitors. (iii) Another assay for determining antioxidant activity analyzes serial dilutions of compounds in the presence of free radical DPPH in methanol in transparent 96-well plates (200 μl/well). Absorbance was measured at 540 nm after 15 min incubation in the dark. All scavenging assays were performed with FlexStation 3 Multi-Mode Microplate Reader (Molecular Devices).
A further series concerns the target T3, human NOX4 (Homo sapiens, UniProt Q9NPH5).
T3 sequence (Q9NPH5 1-578): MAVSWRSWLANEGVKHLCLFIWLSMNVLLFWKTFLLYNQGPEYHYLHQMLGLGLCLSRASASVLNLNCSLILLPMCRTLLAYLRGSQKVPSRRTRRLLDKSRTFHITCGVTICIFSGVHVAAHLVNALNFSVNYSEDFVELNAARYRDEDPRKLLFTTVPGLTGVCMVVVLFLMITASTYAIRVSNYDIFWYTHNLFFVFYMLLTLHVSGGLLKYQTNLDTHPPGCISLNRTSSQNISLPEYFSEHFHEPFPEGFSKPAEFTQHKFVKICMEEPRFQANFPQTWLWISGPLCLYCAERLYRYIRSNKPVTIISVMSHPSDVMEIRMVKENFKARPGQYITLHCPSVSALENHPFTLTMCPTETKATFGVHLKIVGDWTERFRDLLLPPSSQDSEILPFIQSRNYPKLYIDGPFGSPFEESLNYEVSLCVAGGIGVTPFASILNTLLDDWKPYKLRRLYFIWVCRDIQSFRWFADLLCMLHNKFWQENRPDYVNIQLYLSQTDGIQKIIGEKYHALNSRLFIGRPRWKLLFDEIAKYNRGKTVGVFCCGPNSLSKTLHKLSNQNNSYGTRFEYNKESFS
T3 sequence (P13498 1-195 partner): T2 sequence (P13498 1-195 partner)
The series can be described thus: WST-1 O2•- detection in tetracycline-induced NOX4 HEK293 T-REx cells. It is filed as cell-based. The conditions noted are these: WST-1, tetracycline 1 μg/mL 24 h.

Series [2] in a line: DPPH free radical scavenging assay (absorbance). The conditions noted are these: cell-free, DPPH in methanol, 15 min; read-out: Scavenging effect IC50 Absorbance DPPH.
Procedure: as §1
A further series deals with T4, NOX2 (Homo sapiens, UniProt P04839).
T4 sequence (P04839 2-570 limits assumed): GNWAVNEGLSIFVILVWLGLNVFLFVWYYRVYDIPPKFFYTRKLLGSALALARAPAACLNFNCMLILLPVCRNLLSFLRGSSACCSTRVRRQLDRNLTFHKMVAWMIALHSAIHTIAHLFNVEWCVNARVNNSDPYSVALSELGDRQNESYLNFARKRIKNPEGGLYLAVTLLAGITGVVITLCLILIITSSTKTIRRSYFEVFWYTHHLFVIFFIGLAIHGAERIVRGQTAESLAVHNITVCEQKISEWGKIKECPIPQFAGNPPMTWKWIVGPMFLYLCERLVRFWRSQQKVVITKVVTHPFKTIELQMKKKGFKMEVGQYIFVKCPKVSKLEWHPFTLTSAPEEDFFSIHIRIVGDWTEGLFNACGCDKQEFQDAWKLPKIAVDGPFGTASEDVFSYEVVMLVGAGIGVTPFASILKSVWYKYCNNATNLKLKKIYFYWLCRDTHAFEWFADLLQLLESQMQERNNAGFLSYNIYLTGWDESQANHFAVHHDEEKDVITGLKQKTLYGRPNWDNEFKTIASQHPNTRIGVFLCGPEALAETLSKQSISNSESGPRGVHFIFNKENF
T4 sequence (P13498 1-195 partner): T2 sequence (P13498 1-195 partner)
The series can be described thus: WST-1 O2•- detection in differentiated PLB-985 cells (NOX2).

Another series is described as follows: in vitro. The conditions noted are these: human.

Procedure for in vitro: The effect of the compounds on cell viability was obtained using the Calcein-AM assay. […] Cells suspensions were prepared in HBSS. Cells were preincubated at 50,000 cells/well with compounds for 10 min at room temperature before addition of 4 μM Calcein-AM. Then the plate was incubated at 37 °C for 1 h in the dark. Intracellular Calcein fluorescence was measured using Spectramax Paradigm (Molecular Devices) at 485 nm excitation and 520 nm emission.

The IC50 is the concentration that inhibits the measured activity by half. For the molecule `COc1cc(C(C)=O)cc(-c2cc(C(C)=O)cc(OC)c2O)c1O` [Diapocynin, diapocynin], the IC50 at NOX5 was 16.6 µM; at human NOX1 it was > 50 µM; in series [1], 11.5 µM; on human NOX4, > 50 µM; in series [2] it was > 50 µM; against NOX2 it was > 50 µM. Besides, the CC50 at 1 h in “in vitro” (PLB-985 cells) is > 50 µM.
As to `Cc1c2c(=O)n(-c3ccccc3Cl)[nH]c2cc(=O)n1Cc1ccccn1` [GKT136901], the 50% inhibitory concentration (IC50) on NOX5 was 8 µM; against human NOX1, > 50 µM; in series [1] it was 1.9 µM; against human NOX4, > 50 µM; in series [2] it was 21.7 µM; on NOX2, > 50 µM. In addition, in the series “in vitro” (PLB-985 cells), the CC50 at 1 h was > 50 µM.
Consider `COc1cc(C(C)=O)ccc1O` [Apocynin, apocynin], for which the IC50 (on NOX5; against human NOX1; in series [1]; on human NOX4; in series [2]; against NOX2) was > 50 µM in each case. The CC50 at 1 h in the series “in vitro” was > 50 µM.
On to `O=c1c2ccccc2[se]n1-c1ccccc1` [Ebselen, ebselen], for which the IC50 at NOX5 is 2.1 µM; on human NOX1 it was 31.6 µM; in series [1] it was 3.3 µM; in series [2], > 50 µM. The CC50 at 1 h in “in vitro” (PLB-985 cells) was determined as 3.1 µM.
Turning to `c1ccc2c(c1)[I+]c1ccccc1-2` [DPI, diphenylene iodonium chloride], the IC50 in series [1] and in series [2] was > 50 µM in each case. For the same molecule, in “in vitro”, the CC50 at 1 h was > 50 µM.
